Laboratory results as given in patent US10246429B2, “Vinyl fluoride cyclopropyl fused thiazin-2-amine compounds as beta-secretase inhibitors and methods of use” (AMGEN INC., priority 2015, dated 2019).
Like-named read-outs stand apart in the source and are kept apart here.

Legend:
[1] = target: Cathepsin D (CatD) (Homo sapiens (Human), UniProt P07339); assay: CatD assay; type: biochemical; conditions: read-out: IC50 IP (μM) CatD
[2] = target: T1, BACE1 (Homo sapiens (Human), UniProt P56817); assay: BACE1 cell assay; type: cell-based
Target sequence in this assay (P56817 46-501, species assumed): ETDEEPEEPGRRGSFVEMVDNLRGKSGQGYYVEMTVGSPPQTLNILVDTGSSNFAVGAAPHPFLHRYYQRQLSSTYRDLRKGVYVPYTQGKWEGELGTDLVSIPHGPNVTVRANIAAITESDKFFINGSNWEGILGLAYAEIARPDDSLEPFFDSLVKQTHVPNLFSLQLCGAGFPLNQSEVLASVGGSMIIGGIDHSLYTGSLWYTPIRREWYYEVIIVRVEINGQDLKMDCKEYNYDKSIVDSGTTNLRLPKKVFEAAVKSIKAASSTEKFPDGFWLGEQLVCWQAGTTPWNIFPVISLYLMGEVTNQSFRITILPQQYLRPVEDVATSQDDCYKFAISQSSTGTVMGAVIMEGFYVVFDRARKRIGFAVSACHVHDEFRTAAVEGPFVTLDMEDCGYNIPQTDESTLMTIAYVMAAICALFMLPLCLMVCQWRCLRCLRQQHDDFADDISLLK

[3] = target: BACE2 (Homo sapiens (Human), UniProt Q9Y5Z0); assay: In vitro enzymatic BACE2 FRET assay; type: biochemical
Text: (§1) In Vitro Enzymatic BACE1 and BACE2 FRET (Fluorescence Resonance Energy Transfer) Assays (Enzyme Assay Data in Table 1)

[4] = target: T1, BACE1; assay: In vitro enzymatic BACE1 FRET assay; type: biochemical
Target sequence in this assay (P56817 46-501): as the sequence (P56817 46-501, species assumed) above
Text: as §1

[5] = read-out: IC50 IP (μM) BACE1 Cell
[6] = read-out: IC50 IP (μM) BACE2 Enzyme
[7] = read-out: IC50 IP (μM) BACE1 Enzyme

BACE2, sequence (Q9Y5Z0 63-518): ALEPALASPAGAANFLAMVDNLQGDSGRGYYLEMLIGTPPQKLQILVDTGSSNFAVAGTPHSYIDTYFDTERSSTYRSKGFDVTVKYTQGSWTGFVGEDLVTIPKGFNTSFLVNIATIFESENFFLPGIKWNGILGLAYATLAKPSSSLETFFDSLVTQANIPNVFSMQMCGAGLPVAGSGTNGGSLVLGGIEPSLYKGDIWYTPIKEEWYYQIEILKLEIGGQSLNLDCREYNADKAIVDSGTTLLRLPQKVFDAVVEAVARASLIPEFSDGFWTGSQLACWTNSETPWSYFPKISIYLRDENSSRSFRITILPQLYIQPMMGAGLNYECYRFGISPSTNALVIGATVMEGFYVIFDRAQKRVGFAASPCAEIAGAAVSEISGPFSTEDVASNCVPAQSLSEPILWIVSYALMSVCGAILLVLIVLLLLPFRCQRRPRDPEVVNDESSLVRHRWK
Cathepsin D (CatD), sequence (P07339 65-412, species assumed): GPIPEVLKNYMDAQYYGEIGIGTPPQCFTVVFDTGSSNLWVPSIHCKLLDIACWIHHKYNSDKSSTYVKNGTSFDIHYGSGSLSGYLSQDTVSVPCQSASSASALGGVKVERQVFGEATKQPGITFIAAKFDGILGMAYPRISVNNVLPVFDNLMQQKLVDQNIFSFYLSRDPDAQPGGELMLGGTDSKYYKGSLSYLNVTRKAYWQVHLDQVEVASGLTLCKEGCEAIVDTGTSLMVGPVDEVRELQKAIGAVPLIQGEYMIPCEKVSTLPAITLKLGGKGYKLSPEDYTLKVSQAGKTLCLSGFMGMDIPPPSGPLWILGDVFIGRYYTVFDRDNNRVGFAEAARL

SMILES | IC50 [1] | IC50 [2, 5] | IC50 [3, 6] | IC50 [4, 7] | IC50 [2] | IC50 [3] | IC50 [4]
CNC(=O)[C@]12C[C@H]1[C@@](C)(c1cc(/C=C(\F)c3ccc(Br)cn3)ccc1F)N=C(N)S2 [Example 355, (1S,5S,6S)-3-amino-5-(5-((Z)-2-(5-bromopyridin-2-yl)-2-fluorovinyl)-2-fluorophenyl)-N,5-dimethyl-2-thia-4-azabicyclo[4.1.0]hept-3-ene-1-carboxamide] | 141 µM | 0.023 µM | 0.069 µM | 0.01 µM |  |  | 
C[C@]1(c2cc(/C=C(\F)c3ccc(C#N)cn3)ccc2F)N=C(N)S[C@@]2(C(=O)N3CCC(F)CC3)C[C@H]21 [Example 326, 6-((Z)-2-(3-((1S,5S,6S)-3-amino-1-(4-fluoropiperidine-1-carbonyl)-5-methyl-2-thia-4-azabicyclo[4.1.0]hept-3-en-5-yl)-4-fluorophenyl)-1-fluorovinyl)nicotinonitrile] | 648 µM | 0.0022 µM | 0.045 µM | 0.0016 µM |  |  | 
COC[C@]12C[C@H]1[C@@](C)(c1cc(/C=C(\F)c3cnc(OCC4CC4)cn3)ccc1F)N=C(N)S2 [Example 270] | 211 µM | 5.12 µM | 1.22 µM | 0.659 µM |  |  | 
COC(=O)[C@H]1CCCN1C(=O)[C@]12C[C@H]1[C@@](C)(c1cc(/C=C(\F)c3ccc(C#N)cn3)ccc1F)N=C(N)S2 [Example 130, (R)-methyl 1-((1S,5S,6S)-3-amino-5-(5-((Z)-2-(5-cyanopyridin-2-yl)-2-fluorovinyl)-2-fluorophenyl)-5-methyl-2-thia-4-azabicyclo[4.1.0]hept-3-ene-1-carbonyl)pyrrolidine-2-carboxylate bis(2,2,2-trifluoroacetate)] | 120 µM | 0.00747 µM | 0.121 µM | 0.0034 µM |  |  | 
C[C@H]1[C@@H](F)CCN1C(=O)[C@]12C[C@H]1[C@@](C)(c1cc(/C=C(\F)c3ccc(C#N)cn3)ccc1F)N=C(N)S2 [Example 306, 6-((Z)-2-(3-((1S,5S,6S)-3-amino-1-((2S,3S)-3-fluoro-2-methylpyrrolidine-1-carbonyl)-5-methyl-2-thia-4-azabicyclo[4.1.0]hept-3-en-5-yl)-4-fluorophenyl)-1-fluorovinyl)nicotinonitrile] | 16.2 µM | 0.001 µM | 0.111 µM | 0.002 µM |  |  | 
C[C@]1(c2cc(/C=C(\F)c3ccc(C#N)cn3)ccc2F)N=C(N)S[C@@]2(C(=O)N3CCOC[C@@H]3CO)C[C@H]21 [Example 335] | 148 µM |  |  |  | 0.0026 µM | 0.186 µM | 0.0028 µM
CN(C)C(=O)[C@]12C[C@H]1[C@@](C)(c1cc(/C=C(\F)c3cnc(OCC4COC4)cn3)ccc1F)N=C(N)S2 [Example 212, (1S,5S,6S)-3-amino-5-(2-fluoro-5-((Z)-2-fluoro-2-(5-(oxetan-3-ylmethoxy)pyrazin-2-yl)vinyl)phenyl)-N,N,5-trimethyl-2-thia-4-azabicyclo[4.1.0]hept-3-ene-1-carboxamide] | 202 µM | 0.065 µM | 0.077 µM | 0.076 µM |  |  | 
CN(C)C(=O)[C@]12C[C@H]1[C@@](C)(c1cc(/C=C(\F)c3cnc(OCC(F)(F)C(F)F)cn3)cnc1F)N=C(N)S2 [Example 291, (1S,5S,6S)-3-amino-5-(2-fluoro-5-((Z)-2-fluoro-2-(5-(2,2,3,3-tetrafluoropropoxy)pyrazin-2-yl)vinyl)pyridin-3-yl)-N,N,5-trimethyl-2-thia-4-azabicyclo[4.1.0]hept-3-ene-1-carboxamide] | 290 µM |  | 0.106 µM | 0.0406 µM | 0.326 µM |  | 
CNC(=O)[C@]12C[C@H]1[C@@](C)(c1cc(/C=C(/F)c3ccc(Br)cn3)ccc1F)N=C(N)S2 [Example 356, (1S,5S,6S)-3-amino-5-(5-((E)-2-(5-bromopyridin-2-yl)-2-fluorovinyl)-2-fluorophenyl)-N,5-dimethyl-2-thia-4-azabicyclo[4.1.0]hept-3-ene-1-carboxamide] | 64 µM | 0.154 µM | 0.137 µM | 0.023 µM |  |  | 
C[C@@H]1COC[C@@H](C)N1C(=O)[C@]12C[C@H]1[C@@](C)(c1cc(/C=C(\F)c3ccc(C#N)cn3)ccc1F)N=C(N)S2 [Example 314, 6-((Z)-2-(3-((1S,5S,6S)-3-amino-1-((3R,5R)-3,5-dimethylmorpholine-4-carbonyl)-5-methyl-2-thia-4-azabicyclo[4.1.0]hept-3-en-5-yl)-4-fluorophenyl)-1-fluorovinyl)nicotinonitrile] | 447 µM | 0.0067 µM | 0.24 µM | 0.0047 µM |  |  | 
CN(C)C(=O)[C@]12C[C@H]1[C@@](C)(c1cc(/C=C(\F)c3ccc(Br)cn3)ccc1F)N=C(N)S2 [Example 108, (1S,5S,6S)-3-amino-5-(5-((Z)-2-(5-bromopyridin-2-yl)-2-fluorovinyl)-2-fluorophenyl)-N,N,5-trimethyl-2-thia-4-azabicyclo[4.1.0]hept-3-ene-1-carboxamide] | 519 µM | 0.00853 µM | 0.00292 µM | 0.00199 µM |  |  | 
Cc1noc(COc2cnc(/C(F)=C/c3ccc(F)c([C@@]4(C)N=C(N)S[C@@]5(C(=O)N(C)C)C[C@H]54)c3)cn2)n1 [Example 217, (1S,5S,6S)-3-amino-5-(2-fluoro-5-((Z)-2-fluoro-2-(5-((3-methyl-1,2,4-oxadiazol-5-yl)methoxy)pyrazin-2-yl)vinyl)phenyl)-N,N,5-trimethyl-2-thia-4-azabicyclo[4.1.0]hept-3-ene-1-carboxamide] | 438 µM | 0.002 µM | 0.07 µM | 0.002 µM |  |  | 
C[C@]1(c2cc(/C=C(\F)c3ccc(Br)cn3)ccc2F)N=C(N)S[C@@]2(C(=O)N3CCOCC3)C[C@H]21 [Example 338, ((1S,5S,6S)-3-amino-5-(5-((Z)-2-(5-bromopyridin-2-yl)-2-fluorovinyl)-2-fluorophenyl)-5-methyl-2-thia-4-azabicyclo[4.1.0]hept-3-en-1-yl)(morpholino)methanone] | 353 µM | 0.0034 µM | 0.005 µM | 0.0011 µM |  |  | 
CN(C)C(=O)[C@]12C[C@H]1[C@@](C)(c1cc(/C=C(\F)c3cn4cc(C#N)ccc4n3)ccc1F)N=C(N)S2 [Example 246, (1S,5S,6S)-3-amino-5-(5-((Z)-2-(6-cyanoimidazo[1,2-a]pyridin-2-yl)-2-fluorovinyl)-2-fluorophenyl)-N,N,5-trimethyl-2-thia-4-azabicyclo[4.1.0]hept-3-ene-1-carboxamide] | 53.1 µM | 0.05 µM | 0.39 µM | 0.171 µM |  |  | 
COC[C@H](C)Oc1cnc(/C(F)=C/c2ccc(F)c([C@@]3(C)N=C(N)S[C@@]4(C(=O)N(C)C)C[C@H]43)c2)cn1 [Example 214, (1S,5S,6S)-3-amino-5-(2-fluoro-5-((Z)-2-fluoro-2-(5-(((S)-1-methoxypropan-2-yl)oxy)pyrazin-2-yl)vinyl)phenyl)-N,N,5-trimethyl-2-thia-4-azabicyclo[4.1.0]hept-3-ene-1-carboxamide] | 134 µM | 0.024 µM | 0.072 µM | 0.014 µM |  |  | 
